≈ marks a conversion by molar mass, not a printed value. Like-named read-outs stand apart in the source and are kept apart here.
What was measured:
Format in all cases: cell-based
[1] = tested on: A. baumannii wild type (WT); assay: MIC against A. baumannii isolate in RPMI + FCS
[2] = tested on: A. baumannii with Arr-mediated and RpoB mutation-mediated resistance
[3] = tested on: S. aureus (UAMS-1625 strain); assay: MIC by broth microdilution against S. aureus; conditions: Staphylococcus aureus, read-out: MIC S. aureus
[4] = tested on: A. baumannii (HUMC1 strain); assay: MIC by broth microdilution against A. baumannii in RPMI + 10% FCS; conditions: Acinetobacter baumannii; HUMC1 strain; RPMI + 10% FCS; read-out: MIC A. baumannii
[5] = tested on: M. abscessus subsp. abscessus ATCC 19977; assay: MIC against M. abscessus in Middlebrook 7H9 + ADC; conditions: Mycobacteroides abscessus, ATCC19977
[6] = tested on: M. kansasii (ATCC 12478); assay: MIC against M. kansasii in CAMHB + ADC; conditions: Mycobacterium kansasii, ATCC12478; ATCC 12478; CAMHB + ADC (5%); read-out: MIC M. kansasii
[7] = tested on: M. xenopi (ATCC 19250); assay: MIC against M. xenopi in CAMHB + ADC; conditions: Mycobacterium xenopi, ATCC19250; ATCC 19250; CAMHB + ADC (5%); read-out: MIC M. xenopi
[8] = tested on: M. avium (ATCC 25291); assay: MIC against M. avium in CAMHB + ADC; conditions: Mycobacterium avium, ATCC25291; ATCC 25291; CAMHB + ADC (5%); read-out: MIC M. avium
[9] = tested on: M. abscessus subsp. abscessus CCUG 71636; assay: MIC against M. abscessus isolate in 7H9 + ADC; conditions: Mycobacteroides abscessus, CCUG71636
[10] = tested on: M. abscessus subsp. abscessus CCUG 71382; assay: MIC against M. abscessus isolate in 7H9 + ADC; conditions: Mycobacteroides abscessus, CCUG71382
[11] = tested on: M. abscessus subsp. bolletii CCUG 50184; assay: MIC against M. abscessus isolate in 7H9 + ADC; conditions: Mycobacteroides abscessus, CCUG50184
[12] = tested on: M. abscessus subsp. massiliense CCUG 48898; assay: MIC against M. abscessus isolate in 7H9 + ADC; conditions: Mycobacteroides abscessus, CCUG48898
[13] = tested on: A. baumannii Arr-2; assay: microbe, parasite or virus in culture; conditions: Acinetobacter baumannii, ARR2, read-out: A. baumannii MIC in RPMI + FCS, Arr-2
[14] = tested on: A. baumannii RpoB H535Q mutant; assay: microbe, parasite or virus in culture; conditions: Acinetobacter baumannii, RPOBH535QMUTANT, read-out: A. baumannii MIC in RPMI + FCS, RpoB H535Q
[15] = tested on: A. baumannii RpoB H535C mutant; assay: microbe, parasite or virus in culture; conditions: Acinetobacter baumannii, RPOBH535CMUTANT, read-out: A. baumannii MIC in RPMI + FCS, RpoB H535C
[16] = tested on: A. baumannii RpoB H535L mutant; assay: microbe, parasite or virus in culture; conditions: Acinetobacter baumannii, RPOBH535LMUTANT, read-out: A. baumannii MIC in RPMI + FCS, RpoB H535L
[17] = tested on: Enterococcus faecium (strain NCTC 12204); assay: MIC against E. faecium; conditions: Enterococcus faecium
[18] = tested on: Enterococcus faecalis (strain ATCC 51575); assay: MIC against E. faecalis; conditions: Enterococcus faecalis, ATCC51575, CAMHB
[19] = tested on: Staphylococcus epidermidis (strain ATCC 12228); assay: MIC against S. epidermidis; conditions: Staphylococcus epidermidis, ATCC12228, CAMHB
[20] = tested on: Hemophilus influenzae (strain ATCC 49247); assay: MIC against H. influenzae; conditions: Haemophilus influenzae, ATCC49247, Hemophilus test medium broth
[21] = tested on: M. abscessus strains; assay: MIC over the five tested M. abscessus strains in 7H9 + ADC; conditions: Mycobacteroides abscessus, span over five isolates, read-out: MIC values against the tested M. abscessus strains
[22] = tested on: M. abscessus subsp. abscessus ATCC 19977; assay: MIC against M. abscessus isolate in CAMHB; conditions: Mycobacteroides abscessus, ATCC19977
[23] = tested on: M. abscessus subsp. abscessus CCUG 71636; assay: MIC against M. abscessus isolate in CAMHB
[24] = tested on: M. abscessus subsp. abscessus CCUG 71382; assay: MIC against M. abscessus isolate in CAMHB; conditions: Mycobacteroides abscessus, CCUG71382
[25] = tested on: M. abscessus subsp. bolletii CCUG 50184; assay: MIC against M. abscessus isolate in CAMHB; conditions: Mycobacteroides abscessus, CCUG50184
[26] = tested on: M. abscessus subsp. massiliense CCUG 48898; assay: MIC against M. abscessus isolate in CAMHB; conditions: Mycobacteroides abscessus, CCUG48898
[27] = ATCC 19977, 7H9 + ADC, read-out: MIC M. abscessus
[28] = read-out: M. abscessus MIC in 7H9 + ADC, abscessus ATCC 19977
[29] = NCTC12204, strain NCTC 12204, CAMHB, read-out: MIC E. faecium
[30] = Mycobacteroides abscessus, CCUG71636; read-out: M. abscessus MIC in CAMHB, abscessus CCUG 71636
[31] = Acinetobacter baumannii; read-out: A. baumannii MIC in RPMI + FCS, WT

Structure (SMILES)	MIC [3]	MIC [4]	MIC [5, 27]	MIC [5, 28]	MIC [6]	MIC [7]	MIC [8]	MIC [9]	MIC [10]	MIC [11]	MIC [12]	MIC [13]	MIC [14]	MIC [15]	MIC [16]	MIC [18]	MIC [22]	MIC [24]	MIC [25]	MIC [26]	other results
CO[C@H]1/C=C/O[C@@]2(C)Oc3c(C)c(O)c4c(c3C2=O)C(=O)C(N2CCOCC2)=C(NC(=O)/C(C)=C\C=C\[C@H](C)[C@H](O)[C@@H](C)[C@@H](O)[C@@H](C)[C@H](OC(=O)CC(=O)OCC2CCCN(C)C2)[C@@H]1C)C4=O (stereo partly drawn) [CGP4832, reference compound]	–	–	–	–	–	–	–	–	–	–	–	–	–	–	–	–	–	–	–	–	antibacterial activity against A. baumannii wild type strain [1]: did not exhibit strong activity; activity against A. baumannii with Arr- and RpoB mutation-mediated resistance [2]: lost activity compared with rifabutin
CO[C@H]1/C=C/O[C@@]2(C)Oc3c(C)c(O)c4c(c3C2=O)C2=NC3(CCN(CC(C)C)CC3)NC2=C(NC(=O)/C(C)=C\C=C\[C@H](C)[C@H](O)[C@@H](C)[C@@H](O)[C@@H](C)[C@H](OC(=O)CC(=O)OCC2CCCN(C)C2)[C@@H]1C)C4=O (stereo partly drawn) [Compound 3]	0.06 µg/mL (≈ 0.0599 µM)	≤ 0.002 µg/mL	1 µg/mL	1 µg/mL	0.125 µg/mL	1 µg/mL	1 µg/mL	0.5 µg/mL	1 µg/mL	0.5 µg/mL	2 µg/mL	≤ 0.002 µg/mL	≤ 0.002 µg/mL	0.008 µg/mL	0.25 µg/mL	2000 µg/mL (≈ 2000 µM)	–	–	–	–	antibacterial activity against A. baumannii wild type strain [1]: retained strong antibacterial activity; MIC ([1]; Acinetobacter baumannii, read-out: A. baumannii MIC in RPMI + FCS, WT): ≤ 0.002 µg/mL; MIC [17, 29]: 1000 µg/mL (≈ 998 µM); MIC [19]: ≤ 2 µg/mL; MIC [20]: 1000 µg/mL (≈ 998 µM); MIC [21]: 0.5 to 2 µg/mL; activity against A. baumannii with Arr- and RpoB mutation-mediated resistance [2]: overcame antibiotic resistance mechanisms
CO[C@H]1/C=C/OC2(C)Oc3c(C)c(O)c4c(c3C2=O)C2=NC3(CCN(CC(C)C)CC3)NC2=C(NC(=O)/C(C)=C\C=C\[C@H](C)[C@H](O)[C@@H](C)[C@@H](O)[C@@H](C)[C@H](OC(=O)CCCC(=O)N2CCC(N(C)c3ccccc3)CC2)[C@@H]1C)C4=O (stereo partly drawn) [Compound 85]	0.5 µg/mL (≈ 0.458 µM)	0.03 µg/mL	0.125 µg/mL	–	0.008 µg/mL	0.03 µg/mL	0.25 µg/mL	–	–	–	–	–	–	–	–	–	1 µg/mL (≈ 0.916 µM)	1 µg/mL (≈ 0.916 µM)	1 µg/mL (≈ 0.916 µM)	1 µg/mL (≈ 0.916 µM)	MIC [23, 30]: 0.5 µg/mL (≈ 0.458 µM)
CO[C@H]1/C=C/O[C@@]2(C)Oc3c(C)c(O)c4c(c3C2=O)C2=NC3(CCN(CC(C)C)CC3)NC2=C(NC(=O)/C(C)=C\C=C\[C@H](C)[C@H](O)[C@@H](C)[C@@H](O)[C@@H](C)[C@H](OC(=O)CC(=O)NC2CCN(Cc3ccccc3)CC2)[C@@H]1C)C4=O [Compound 90]	0.125 µg/mL (≈ 0.118 µM)	0.016 µg/mL	0.25 µg/mL	–	0.008 µg/mL	0.25 µg/mL	0.125 µg/mL	–	–	–	–	–	–	–	–	–	1 µg/mL (≈ 0.94 µM)	1 µg/mL (≈ 0.94 µM)	0.5 µg/mL (≈ 0.47 µM)	1 µg/mL (≈ 0.94 µM)	MIC ([23]; Mycobacteroides abscessus, CCUG71636, read-out: M. abscessus MIC in CAMHB, abscessus CCUG 71636): 0.125 µg/mL (≈ 0.118 µM)
CO[C@H]1/C=C/O[C@@]2(C)Oc3c(C)c(O)c4c(c3C2=O)C2=NC3(CCN(CC(C)C)CC3)NC2=C(NC(=O)/C(C)=C\C=C\[C@H](C)[C@H](O)[C@@H](C)[C@@H](O)[C@@H](C)[C@H](OC(=O)CC(=O)N2CCN(CC3CCCCC3)CC2)[C@@H]1C)C4=O [Compound 98]	0.5 µg/mL (≈ 0.474 µM)	0.03 µg/mL	0.125 µg/mL	–	0.002 µg/mL	0.016 µg/mL	0.03 µg/mL	–	–	–	–	–	–	–	–	–	0.25 µg/mL (≈ 0.237 µM)	0.5 µg/mL (≈ 0.474 µM)	0.25 µg/mL (≈ 0.237 µM)	0.5 µg/mL (≈ 0.474 µM)	MIC [23, 30]: 0.125 µg/mL (≈ 0.118 µM)
CO[C@H]1/C=C/O[C@@]2(C)Oc3c(C)c(O)c4c(c3C2=O)C2=NC3(CCN(CC(C)C)CC3)NC2=C(NC(=O)/C(C)=C\C=C\[C@H](C)[C@H](O)[C@@H](C)[C@@H](O)[C@@H](C)[C@H](OC(C)=O)[C@@H]1C)C4=O [Rifabutin, rifabutin]	0.016 µg/mL (≈ 0.0189 µM)	≤ 0.002 µg/mL	8 µg/mL	8 µg/mL	0.001 µg/mL	0.03 µg/mL	0.125 µg/mL	4 µg/mL	16 µg/mL	8 µg/mL	2 µg/mL	0.125 µg/mL	0.004 µg/mL	0.03 µg/mL	> 32 µg/mL	4000 µg/mL (≈ 4720 µM)	16 µg/mL (≈ 18.9 µM)	> 16 µg/mL	16 µg/mL (≈ 18.9 µM)	8 µg/mL (≈ 9.44 µM)	MIC [23, 30]: 2 µg/mL (≈ 2.36 µM); MIC [1, 31]: ≤ 0.002 µg/mL; MIC ([17]; NCTC12204, read-out: MIC E. faecium): 125 µg/mL (≈ 148 µM); MIC [19]: 4 µg/mL (≈ 4.72 µM); MIC [20]: 500 µg/mL (≈ 590 µM); MIC [21]: 2 to 16 µg/mL
CO[C@H]1/C=C/O[C@@]2(C)Oc3c(C)c(O)c4c(O)c(c(/C=N/N5CCN(C)CC5)c(O)c4c3C2=O)NC(=O)/C(C)=C\C=C\[C@H](C)[C@H](O)[C@@H](C)[C@@H](O)[C@@H](C)[C@H](OC(C)=O)[C@@H]1C [Rifampicin, rifampicin]	–	–	–	> 32 µg/mL	–	–	–	> 32 µg/mL	> 32 µg/mL	> 32 µg/mL	32 µg/mL	> 32 µg/mL	> 32 µg/mL	> 32 µg/mL	> 32 µg/mL	1000 µg/mL (≈ 1220 µM)	–	–	–	–	MIC [1, 31]: 32 µg/mL; MIC [17, 29]: 500 µg/mL (≈ 608 µM); MIC [19]: ≤ 2 µg/mL; MIC [20]: 250 µg/mL (≈ 304 µM); MIC [21]: > 32 µg/mL
